Source: ChEMBL document CHEMBL1201862, “PubChem BioAssay data set” (2004)
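Five compound concentrations were applied to cells in 96-well plates for 48 hours; endpoints were derived by simple linear interpolation of the resulting dose-response curve. At the GI50, growth is halved.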 Calls of active or inactive are those of the source. Cut-off read from the data, not from the text of the source: active = GI50 up to about 1.1 µM and inactive = higher.

Key:
Assay in all cases: NCI anticancer screen, dose series, 48 h
RPMI-8226 = system: RPMI-8226
DLD-1 = system: DLD-1
SN12C = system: SN12C
DMS-273 = system: DMS-273
SK-OV-3 = system: SK-OV-3
SNB-75 = system: SNB-75
HOP-62 = system: HOP-62
A549 = system: A549
RXF 393 = system: RXF 393
Malme-3M = system: Malme-3M
LOX IMVI = system: LOX IMVI
SK-MEL-2 = system: SK-MEL-2
OVCAR-3 = system: OVCAR-3
XF498 = system: XF498
HCC 2998 = system: HCC 2998
SK-MEL-28 = system: SK-MEL-28
SK-MEL-5 = system: SK-MEL-5
DMS-114 = system: DMS-114
HCT-15 = system: HCT-15
M14 = system: M14
SNB-19 = system: SNB-19
NCI-H460 = system: NCI-H460
HT-29 = system: HT-29
U-251 = system: U-251
TK-10 = system: TK-10
SW-620 = system: SW-620
KM-20L2 = system: KM-20L2
MOLT-4 = system: MOLT-4
A498 = system: A498
NCI-H226 = system: NCI-H226
CAKI-1 = system: CAKI-1
IGROV-1 = system: IGROV-1
RXF 631 = system: RXF 631
HOP-92 = system: HOP-92
KM12 = system: KM12
OVCAR-5 = system: OVCAR-5
M19-MEL = system: M19-MEL
HOP-18 = system: HOP-18
NCI-H522 = system: NCI-H522
SF-539 = system: SF-539
CCRF-CEM = system: CCRF-CEM
HL-60 = system: HL-60
SNB-78 = system: SNB-78
HCT-116 = system: HCT-116
UACC-62 = system: UACC-62
UACC-257 = system: UACC-257
EKVX = system: EKVX
K562 = system: K562
SF-268 = system: SF-268
786-0 = system: 786-0
OVCAR-8 = system: OVCAR-8
COLO 205 = system: COLO 205
UO-31 = system: UO-31
ACHN = system: ACHN
OVCAR-4 = system: OVCAR-4
NCI-H23 = system: NCI-H23
SF-295 = system: SF-295
LXFL 529 = system: LXFL 529
MDA-MB-231 = system: MDA-MB-231
SR = system: SR
BT-549 = system: BT-549
DU-145 = system: DU-145
MDA-MB-435 = system: MDA-MB-435
Hs-578T = system: Hs-578T
MCF7 = system: MCF7
PC-3 = system: PC-3
MDA-N = system: MDA-N
T47D = system: T47D
NCI/ADR-RES = system: NCI/ADR-RES

Measured: GI50

COc1c(Br)cc(Br)c(OC)c1-c1[nH]c(Br)c(Br)c1Br
4.28 µM: HCT-15
inactive: RPMI-8226 3.39 µM | DLD-1 5.26 µM | SN12C 5.9 µM | DMS-273 6.9 µM | SK-OV-3 13.6 µM | SNB-75 4.45 µM | HOP-62 8.22 µM | A549 5.04 µM | RXF 393 1.36 µM | Malme-3M 3.74 µM | LOX IMVI 11.7 µM | SK-MEL-2 3.01 µM | OVCAR-3 3.66 µM | XF498 2.27 µM | HCC 2998 6.76 µM | SK-MEL-28 6.65 µM | SK-MEL-5 6.55 µM | DMS-114 4.8 µM | M14 7.16 µM | SNB-19 13.1 µM | NCI-H460 9.48 µM | HT-29 4.17 µM | U-251 10.4 µM | TK-10 11.4 µM | SW-620 7.11 µM | KM-20L2 8.87 µM | MOLT-4 4.53 µM | A498 12.1 µM | NCI-H226 5.7 µM | CAKI-1 2.52 µM | IGROV-1 5.71 µM | RXF 631 6.64 µM | HOP-92 1.82 µM | KM12 4.48 µM | OVCAR-5 14.3 µM | M19-MEL 10.2 µM | HOP-18 2.54 µM | NCI-H522 2.18 µM | SF-539 9.98 µM | CCRF-CEM 4.34 µM | HL-60 6.76 µM | SNB-78 11.1 µM | HCT-116 3.25 µM | UACC-62 6.98 µM | UACC-257 4.81 µM | EKVX 6.93 µM | K562 4.01 µM | SF-268 3.78 µM | 786-0 10.7 µM | OVCAR-8 8.75 µM | COLO 205 10.4 µM | UO-31 2.13 µM | ACHN 4.78 µM | OVCAR-4 4.28 µM | NCI-H23 2.98 µM | SF-295 4.63 µM

O=c1c2ccccc2nc(-c2ccc(Br)cc2)n1NC1OC(CO)C(O)C(O)C1O (centres undefined)
inactive: RPMI-8226 72.9 µM | SN12C > 100 µM | DMS-273 > 100 µM | SK-OV-3 > 100 µM | SNB-75 80.5 µM | HOP-62 > 100 µM | A549 > 100 µM | Malme-3M > 100 µM | SK-MEL-2 > 100 µM | OVCAR-3 31.3 µM | HCC 2998 82.4 µM | SK-MEL-28 > 100 µM | SK-MEL-5 75.9 µM | DMS-114 96.6 µM | M14 > 100 µM | SNB-19 > 100 µM | NCI-H460 > 100 µM | HT-29 > 100 µM | U-251 > 100 µM | TK-10 > 100 µM | SW-620 > 100 µM | KM-20L2 > 100 µM | MOLT-4 31.6 µM | A498 > 100 µM | NCI-H226 > 100 µM | CAKI-1 > 100 µM | IGROV-1 > 100 µM | RXF 631 > 100 µM | HOP-92 > 100 µM | KM12 > 100 µM | OVCAR-5 > 100 µM | M19-MEL > 100 µM | HOP-18 > 100 µM | NCI-H522 81.7 µM | SF-539 > 100 µM | CCRF-CEM 32.8 µM | LXFL 529 45.1 µM | HL-60 34.1 µM | SNB-78 > 100 µM | HCT-116 > 100 µM | UACC-62 79.6 µM | UACC-257 > 100 µM | EKVX 78.3 µM | K562 43.6 µM | SF-268 69.5 µM | 786-0 > 100 µM | OVCAR-8 91.4 µM | COLO 205 59.8 µM | UO-31 78 µM | ACHN > 100 µM | OVCAR-4 42 µM | NCI-H23 > 100 µM | SF-295 > 100 µM
> 100 µM: HCT-15

COc1c2c(nc3ccccc13)-c1cc3c(c(=O)n1C2)COC(=O)C3(O)CC(=O)N1CCOCC1 (centres undefined)
41.4 µM: HCT-15
active: DMS-273 1.11 µM | SR 0.23 µM | HOP-62 1 µM | DMS-114 0.664 µM | U-251 0.528 µM | MCF7 1.06 µM | MOLT-4 0.29 µM | SF-539 0.964 µM | CCRF-CEM 0.164 µM | UACC-62 0.76 µM | SF-268 0.532 µM
inactive: RPMI-8226 6.43 µM | DLD-1 40.4 µM | MDA-MB-231 69.7 µM | SN12C 1.59 µM | SK-OV-3 9.48 µM | SNB-75 1.35 µM | A549 10.5 µM | RXF 393 6.01 µM | Malme-3M 16.3 µM | LOX IMVI 1.36 µM | BT-549 5.62 µM | SK-MEL-2 26.8 µM | OVCAR-3 19.4 µM | DU-145 3.3 µM | XF498 7.96 µM | HCC 2998 18.2 µM | MDA-MB-435 18.7 µM | SK-MEL-28 17 µM | SK-MEL-5 4.09 µM | M14 4.04 µM | SNB-19 1.27 µM | NCI-H460 1.17 µM | HT-29 17.3 µM | TK-10 75 µM | SW-620 5.4 µM | Hs-578T 12.6 µM | KM-20L2 15.4 µM | PC-3 21.1 µM | A498 13.2 µM | NCI-H226 6 µM | CAKI-1 3.79 µM | IGROV-1 44.1 µM | HOP-92 9.25 µM | KM12 17.1 µM | OVCAR-5 11.4 µM | M19-MEL 5.58 µM | HOP-18 18 µM | NCI-H522 1.9 µM | LXFL 529 13.9 µM | HL-60 2.72 µM | SNB-78 32.4 µM | MDA-N 19.5 µM | HCT-116 6.55 µM | UACC-257 19 µM | EKVX 43.2 µM | K562 4.85 µM | 786-0 2.07 µM | T47D 3.63 µM | OVCAR-8 3.58 µM | COLO 205 27.8 µM | UO-31 7.16 µM | ACHN 3.13 µM | OVCAR-4 46.1 µM | NCI-H23 1.75 µM | SF-295 3.59 µM

COC1C(OC(=O)/C=C/C=C/C=C/C=C\C(=O)O)CCC2(CO2)C1C1(C)OC1CC=C(C)C (centres undefined)
> 100 µM: HCT-15
inactive: RPMI-8226 > 100 µM | DLD-1 > 100 µM | MDA-MB-231 > 100 µM | SN12C > 100 µM | DMS-273 > 100 µM | SR > 100 µM | SK-OV-3 > 89.7 µM | SNB-75 > 100 µM | HOP-62 > 100 µM | A549 > 100 µM | RXF 393 > 100 µM | Malme-3M 131 µM | LOX IMVI > 100 µM | BT-549 > 100 µM | SK-MEL-2 > 100 µM | OVCAR-3 > 100 µM | DU-145 > 100 µM | XF498 > 100 µM | HCC 2998 > 100 µM | MDA-MB-435 > 100 µM | SK-MEL-28 > 100 µM | SK-MEL-5 > 100 µM | DMS-114 > 100 µM | M14 > 100 µM | SNB-19 > 100 µM | NCI-H460 > 100 µM | HT-29 > 100 µM | U-251 > 100 µM | TK-10 > 100 µM | SW-620 > 100 µM | Hs-578T > 100 µM | MCF7 > 100 µM | KM-20L2 > 100 µM | PC-3 > 100 µM | MOLT-4 > 100 µM | A498 > 100 µM | NCI-H226 > 100 µM | CAKI-1 > 100 µM | IGROV-1 > 100 µM | RXF 631 > 100 µM | HOP-92 > 100 µM | KM12 > 100 µM | OVCAR-5 > 100 µM | M19-MEL > 100 µM | NCI-H522 > 100 µM | SF-539 > 100 µM | CCRF-CEM > 100 µM | LXFL 529 > 100 µM | HCT-116 > 100 µM | UACC-62 > 100 µM | UACC-257 > 100 µM | EKVX > 100 µM | K562 > 56.5 µM | SF-268 > 100 µM | 786-0 > 100 µM | T47D > 100 µM | OVCAR-8 > 100 µM | COLO 205 > 100 µM | UO-31 > 100 µM | NCI/ADR-RES > 100 µM | ACHN > 100 µM | OVCAR-4 > 100 µM | NCI-H23 > 100 µM | SF-295 > 100 µM

CCCCCCCCCCCCCCCCCC(=O)NCC(COP(=O)([O-])OCC[N+](C)(C)C)OCC (centres undefined)
inactive: SK-OV-3 19.4 µM | A549 19.2 µM | Malme-3M 21.3 µM | LOX IMVI 24.9 µM | SK-MEL-28 18.2 µM | SK-MEL-5 17.7 µM | DMS-114 18.5 µM | RXF 631 22.2 µM | SF-539 17.7 µM | UACC-257 18.6 µM | EKVX 21.9 µM | UO-31 19.5 µM | NCI-H23 19.7 µM
active: DMS-273 0.137 µM | SNB-19 0.174 µM | KM-20L2 0.237 µM
